In patent US9732119B2, “Immunomodulators” (BRISTOL-MYERS SQUIBB COMPANY, priority 2014, dated 2017):
Positions of bridges follow the written chain, without caps; N, C: chain ends. Non-standard residues stand in square brackets, D forms with d. Residues, ends and D or L forms follow the SMILES beside them. Trp(1-CH2COOH) = N[C@@H](Cc1cn(CC(=O)O)c2ccccc12)C(=O)O; Phe(4-Cl) = N[C@@H](Cc1ccc(Cl)cc1)C(=O)O; Phe(4-F) = N[C@@H](Cc1ccc(F)cc1)C(=O)O; Phe(4-Me) = Cc1ccc(C[C@H](N)C(=O)O)cc1; Hyp = O=C(O)[C@@H]1C[C@@H](O)CN1; Aad = N[C@@H](CCCC(=O)O)C(=O)O; NMeNle = CCCC[C@H](NC)C(=O)O; Pip = O=C(O)[C@@H]1CCCCN1; Orn = NCCC[C@H](N)C(=O)O; Dab = NCC[C@H](N)C(=O)O; Dap = NC[C@H](N)C(=O)O

Target: T1, PD-1-Ig binding to PD-L1-TVMV-His (PD-L1-His) (Homo sapiens, UniProt Q9NZQ7)
T1 construct: hPDL1(19-239)-TVMV-His; made in house; host or cells: HEK293T cells
Experiment: PD-1/PD-L1 Homogenous Time-Resolved Fluorescence (HTRF) binding assay
Settings: PD-1-Ig (20 nM) / PD-L1-His (10 nM); range classes
In short: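 HTRF competition: compound pre-incubated 15 min with PD-L1-His (10 nM final), then PD-1-Ig (20 nM final) added for 15 min in dPBS, 0.1% BSA, 0.05% Tween-20. Detection with Eu-cryptate anti-Ig (1 nM) and APC anti-His (20 nM) antibodies.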

T1 sequence (Q9NZQ7 with tags, fused parts or gaps): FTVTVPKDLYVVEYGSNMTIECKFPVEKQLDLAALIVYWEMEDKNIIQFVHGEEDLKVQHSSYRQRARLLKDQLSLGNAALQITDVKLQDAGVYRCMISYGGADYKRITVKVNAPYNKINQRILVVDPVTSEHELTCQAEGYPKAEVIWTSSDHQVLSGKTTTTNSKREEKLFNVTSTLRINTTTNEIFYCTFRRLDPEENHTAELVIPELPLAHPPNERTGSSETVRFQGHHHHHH

IC50 [nM] | SMILES
10 to 99 | CCCC[C@H]1C(=O)N(C)[C@@H](CCCC)C(=O)N[C@@H](CC(C)C)C(=O)N[C@H](C(N)=O)CCCC(=O)N[C@@H](Cc2ccc(OC)cc2)C(=O)N2CCCC[C@H]2C(=O)N[C@@H](CC(N)=O)C(=O)N2CCC[C@H]2C(=O)N[C@@H](CN)C(=O)N[C@@H](CC(C)C)C(=O)N2C[C@H](O)C[C@H]2C(=O)N[C@@H](Cc2c[nH]c3ccccc23)C(=O)N[C@@H](CCN)C(=O)N[C@@H](Cc2cn(CC(=O)O)c3ccccc23)C(=O)N1C [Example 10525] (Y(Me)[Pip]NP[Dap]L[Hyp]W[Dab][Trp(1-CH2COOH)][NMeNle][NMeNle]L[Aad]-NH2; lactam N-14)
10 to 99 | CCCC[C@H]1C(=O)N(C)[C@@H](CCCC)C(=O)N[C@@H](CC(C)C)C(=O)N[C@H](C(N)=O)CCCC(=O)N[C@@H](Cc2ccc(F)cc2)C(=O)N2CCCC[C@H]2C(=O)N[C@@H](CC(N)=O)C(=O)N2CCC[C@H]2C(=O)N[C@@H](CN)C(=O)N[C@@H](CC(C)C)C(=O)N2C[C@H](O)C[C@H]2C(=O)N[C@@H](Cc2c[nH]c3ccccc23)C(=O)N[C@@H](CCN)C(=O)N[C@@H](Cc2cn(CC(=O)O)c3ccccc23)C(=O)N1C [Example 10526] ([Phe(4-F)][Pip]NP[Dap]L[Hyp]W[Dab][Trp(1-CH2COOH)][NMeNle][NMeNle]L[Aad]-NH2; lactam N-14)
10 to 99 | CCCC[C@H]1C(=O)N(C)[C@@H](CCCC)C(=O)N[C@@H](CC(C)C)C(=O)N[C@H](C(N)=O)COCC(=O)N[C@@H](Cc2ccc(C)cc2)C(=O)N2CCCC[C@H]2C(=O)N[C@@H](CC(N)=O)C(=O)N2CCC[C@H]2C(=O)N[C@@H](CN)C(=O)N[C@@H](CC(C)C)C(=O)N2C[C@H](O)C[C@H]2C(=O)N[C@@H](Cc2c[nH]c3ccccc23)C(=O)N[C@@H](CCN)C(=O)N[C@@H](Cc2cn(CC(=O)O)c3ccccc23)C(=O)N1C [Example 10527]
10 to 99 | CCCC[C@H]1C(=O)N(C)[C@@H](CCCC)C(=O)N[C@@H](CC(C)C)C(=O)N[C@H](C(N)=O)COCC(=O)N[C@@H](Cc2ccc(OC)cc2)C(=O)N2CCCC[C@H]2C(=O)N[C@@H](CC(N)=O)C(=O)N2CCC[C@H]2C(=O)N[C@@H](CN)C(=O)N[C@@H](CC(C)C)C(=O)N2C[C@H](O)C[C@H]2C(=O)N[C@@H](Cc2c[nH]c3ccccc23)C(=O)N[C@@H](CCN)C(=O)N[C@@H](Cc2cn(CC(=O)O)c3ccccc23)C(=O)N1C [Example 10528]
10 to 99 | CCCC[C@H]1C(=O)N(C)[C@@H](CCCC)C(=O)N[C@@H](CC(C)C)C(=O)N[C@H](C(N)=O)COCC(=O)N[C@@H](Cc2ccc(F)cc2)C(=O)N2CCCC[C@H]2C(=O)N[C@@H](CC(N)=O)C(=O)N2CCC[C@H]2C(=O)N[C@@H](CN)C(=O)N[C@@H](CC(C)C)C(=O)N2C[C@H](O)C[C@H]2C(=O)N[C@@H](Cc2c[nH]c3ccccc23)C(=O)N[C@@H](CCN)C(=O)N[C@@H](Cc2cn(CC(=O)O)c3ccccc23)C(=O)N1C [Example 10529]
1 to 9.9 | CCCC[C@H]1C(=O)N(C)[C@@H](CCCC)C(=O)N[C@@H](CC(C)C)C(=O)N[C@H](C(N)=O)COCC(=O)N[C@@H](Cc2ccc(F)cc2)C(=O)N2CCCC[C@H]2C(=O)N[C@@H](CC(N)=O)C(=O)N2CCC[C@H]2C(=O)N[C@@H](CN)C(=O)N[C@@H](CCC(=O)O)C(=O)N2C[C@H](O)C[C@H]2C(=O)N[C@@H](Cc2c[nH]c3ccccc23)C(=O)N[C@@H](CCN)C(=O)N[C@@H](Cc2cn(CC(=O)O)c3ccccc23)C(=O)N1C [Example 10531]
1 to 9.9 | CCCC[C@H]1C(=O)N(C)[C@@H](CCCC)C(=O)N[C@@H](CC(C)C)C(=O)N[C@H](C(N)=O)COCC(=O)N[C@@H](Cc2ccc(O)cc2)C(=O)N2CCCC[C@H]2C(=O)N[C@@H](CC(N)=O)C(=O)N2CCC[C@H]2C(=O)N[C@@H](CN)C(=O)N[C@@H](CC(C)C)C(=O)N2C[C@H](O)C[C@H]2C(=O)N[C@@H](Cc2c[nH]c3ccccc23)C(=O)N[C@@H](CCN)C(=O)N[C@@H](Cc2cn(CC(=O)O)c3ccccc23)C(=O)N1C [Example 10533]
1 to 9.9 | CCCC[C@H]1C(=O)N(C)[C@@H](CCCC)C(=O)N[C@@H](CC(C)C)C(=O)N[C@H](C(N)=O)CCCC(=O)N[C@@H](Cc2ccc(Cl)cc2)C(=O)N2CCCC[C@H]2C(=O)N[C@@H](CC(N)=O)C(=O)N2CCC[C@H]2C(=O)N[C@@H](CN)C(=O)N[C@@H](CC(C)C)C(=O)N2C[C@H](O)C[C@H]2C(=O)N[C@@H](Cc2c[nH]c3ccccc23)C(=O)N[C@@H](CCN)C(=O)N[C@@H](Cc2cn(CC(=O)O)c3ccccc23)C(=O)N1C [Example 10534] ([Phe(4-Cl)][Pip]NP[Dap]L[Hyp]W[Dab][Trp(1-CH2COOH)][NMeNle][NMeNle]L[Aad]-NH2; lactam N-14)

More lines, now with the values behind:

SMILES | IC50 [nM]
CCCC[C@H]1C(=O)N(C)[C@@H](CCCC)C(=O)N[C@@H](CC(C)C)C(=O)NCCC[C@H](N)C(=O)N[C@@H](Cc2ccc(O)cc2)C(=O)N2CCCC[C@H]2C(=O)N[C@@H](CC(N)=O)C(=O)N2CCC[C@H]2C(=O)N[C@@H](CN)C(=O)N[C@@H](CC(C)C)C(=O)N2C[C@H](O)C[C@H]2C(=O)N[C@@H](Cc2c[nH]c3ccccc23)C(=O)N[C@@H](CCN)C(=O)N[C@@H](Cc2cn(CC(=O)O)c3ccccc23)C(=O)N1C [Example 10517] (H-[Orn]Y[Pip]NP[Dap]L[Hyp]W[Dab][Trp(1-CH2COOH)][NMeNle][NMeNle]L; lactam 1-C) | 10 to 99
CCCC[C@H]1C(=O)N(C)[C@@H](CCCC)C(=O)N[C@@H](CC(C)C)C(=O)NCCC[C@H](N)C(=O)N[C@@H](Cc2ccc(OC)cc2)C(=O)N2CCCC[C@H]2C(=O)N[C@@H](CC(N)=O)C(=O)N2CCC[C@H]2C(=O)N[C@@H](CN)C(=O)N[C@@H](CC(C)C)C(=O)N2C[C@H](O)C[C@H]2C(=O)N[C@@H](Cc2c[nH]c3ccccc23)C(=O)N[C@@H](CCN)C(=O)N[C@@H](Cc2cn(CC(=O)O)c3ccccc23)C(=O)N1C [Example 10518] (H-[Orn]Y(Me)[Pip]NP[Dap]L[Hyp]W[Dab][Trp(1-CH2COOH)][NMeNle][NMeNle]L; lactam 1-C) | 10 to 99
CCCC[C@H]1C(=O)N(C)[C@@H](CCCC)C(=O)N[C@@H](CC(C)C)C(=O)NCCC[C@H](N)C(=O)N[C@@H](Cc2ccc(C)cc2)C(=O)N2CCCC[C@H]2C(=O)N[C@@H](CC(N)=O)C(=O)N2CCC[C@H]2C(=O)N[C@@H](CN)C(=O)N[C@@H](CC(C)C)C(=O)N2C[C@H](O)C[C@H]2C(=O)N[C@@H](Cc2c[nH]c3ccccc23)C(=O)N[C@@H](CCN)C(=O)N[C@@H](Cc2cn(CC(=O)O)c3ccccc23)C(=O)N1C [Example 10519] (H-[Orn][Phe(4-Me)][Pip]NP[Dap]L[Hyp]W[Dab][Trp(1-CH2COOH)][NMeNle][NMeNle]L; lactam 1-C) | 10 to 99
CCCC[C@H]1C(=O)N(C)[C@@H](CCCC)C(=O)N[C@@H](CC(C)C)C(=O)N[C@H](C(N)=O)CCCC(=O)N[C@@H](Cc2ccc(O)cc2)C(=O)N2CCCC[C@H]2C(=O)N[C@@H](CC(N)=O)C(=O)N2CCC[C@H]2C(=O)N[C@@H](CN)C(=O)N[C@@H](CCC(=O)O)C(=O)N2C[C@H](O)C[C@H]2C(=O)N[C@@H](Cc2c[nH]c3ccccc23)C(=O)N[C@@H](CCN)C(=O)N[C@@H](Cc2cn(CC(=O)O)c3ccccc23)C(=O)N1C [Example 10520] (Y[Pip]NP[Dap]E[Hyp]W[Dab][Trp(1-CH2COOH)][NMeNle][NMeNle]L[Aad]-NH2; lactam N-14) | 10 to 99
CCCC[C@H]1C(=O)N(C)[C@@H](CCCC)C(=O)N[C@@H](CC(C)C)C(=O)N[C@H](C(N)=O)CCCC(=O)N[C@@H](Cc2ccc(C)cc2)C(=O)N2CCCC[C@H]2C(=O)N[C@@H](CC(N)=O)C(=O)N2CCC[C@H]2C(=O)N[C@@H](CN)C(=O)N[C@@H](CCC(=O)O)C(=O)N2C[C@H](O)C[C@H]2C(=O)N[C@@H](Cc2c[nH]c3ccccc23)C(=O)N[C@@H](CCN)C(=O)N[C@@H](Cc2cn(CC(=O)O)c3ccccc23)C(=O)N1C [Example 10521] ([Phe(4-Me)][Pip]NP[Dap]E[Hyp]W[Dab][Trp(1-CH2COOH)][NMeNle][NMeNle]L[Aad]-NH2; lactam N-14) | 10 to 99
CCCC[C@H]1C(=O)N(C)[C@@H](CCCC)C(=O)N[C@@H](CC(C)C)C(=O)N[C@H](C(N)=O)CCCC(=O)N[C@@H](Cc2ccc(OC)cc2)C(=O)N2CCCC[C@H]2C(=O)N[C@@H](CC(N)=O)C(=O)N2CCC[C@H]2C(=O)N[C@@H](CN)C(=O)N[C@@H](CCC(=O)O)C(=O)N2C[C@H](O)C[C@H]2C(=O)N[C@@H](Cc2c[nH]c3ccccc23)C(=O)N[C@@H](CCN)C(=O)N[C@@H](Cc2cn(CC(=O)O)c3ccccc23)C(=O)N1C [Example 10522] (Y(Me)[Pip]NP[Dap]E[Hyp]W[Dab][Trp(1-CH2COOH)][NMeNle][NMeNle]L[Aad]-NH2; lactam N-14) | 10 to 99
CCCC[C@H]1C(=O)N(C)[C@@H](CCCC)C(=O)N[C@@H](CC(C)C)C(=O)N[C@H](C(N)=O)COCC(=O)N[C@@H](Cc2ccc(OC)cc2)C(=O)N2CCCC[C@H]2C(=O)N[C@@H](CC(N)=O)C(=O)N2CCC[C@H]2C(=O)N[C@@H](CN)C(=O)N[C@@H](CCC(=O)O)C(=O)N2C[C@H](O)C[C@H]2C(=O)N[C@@H](Cc2c[nH]c3ccccc23)C(=O)N[C@@H](CCN)C(=O)N[C@@H](Cc2cn(CC(=O)O)c3ccccc23)C(=O)N1C [Example 10530] | 1 to 9.9
CCCC[C@H]1C(=O)N(C)[C@@H](CCCC)C(=O)N[C@@H](CC(C)C)C(=O)N[C@H](C(N)=O)CCCC(=O)N[C@@H](Cc2ccc(F)cc2)C(=O)N2CCCC[C@H]2C(=O)N[C@@H](CC(N)=O)C(=O)N2CCC[C@H]2C(=O)N[C@@H](CN)C(=O)N[C@@H](CCC(=O)O)C(=O)N2C[C@H](O)C[C@H]2C(=O)N[C@@H](Cc2c[nH]c3ccccc23)C(=O)N[C@@H](CCN)C(=O)N[C@@H](Cc2cn(CC(=O)O)c3ccccc23)C(=O)N1C [Example 10532] ([Phe(4-F)][Pip]NP[Dap]E[Hyp]W[Dab][Trp(1-CH2COOH)][NMeNle][NMeNle]L[Aad]-NH2; lactam N-14) | 1 to 9.9
